Reference: patent US12606552B2, “Bifunctional compound, preparation method therefor, and use thereof” (SUZHOU KINTOR PHARMACEUTICALS, INC., priority 2020, dated 2026)

Biological target: T1, AR (Homo sapiens, UniProt P10275, T878A)
T1 sequence (P10275 1-920 T878A): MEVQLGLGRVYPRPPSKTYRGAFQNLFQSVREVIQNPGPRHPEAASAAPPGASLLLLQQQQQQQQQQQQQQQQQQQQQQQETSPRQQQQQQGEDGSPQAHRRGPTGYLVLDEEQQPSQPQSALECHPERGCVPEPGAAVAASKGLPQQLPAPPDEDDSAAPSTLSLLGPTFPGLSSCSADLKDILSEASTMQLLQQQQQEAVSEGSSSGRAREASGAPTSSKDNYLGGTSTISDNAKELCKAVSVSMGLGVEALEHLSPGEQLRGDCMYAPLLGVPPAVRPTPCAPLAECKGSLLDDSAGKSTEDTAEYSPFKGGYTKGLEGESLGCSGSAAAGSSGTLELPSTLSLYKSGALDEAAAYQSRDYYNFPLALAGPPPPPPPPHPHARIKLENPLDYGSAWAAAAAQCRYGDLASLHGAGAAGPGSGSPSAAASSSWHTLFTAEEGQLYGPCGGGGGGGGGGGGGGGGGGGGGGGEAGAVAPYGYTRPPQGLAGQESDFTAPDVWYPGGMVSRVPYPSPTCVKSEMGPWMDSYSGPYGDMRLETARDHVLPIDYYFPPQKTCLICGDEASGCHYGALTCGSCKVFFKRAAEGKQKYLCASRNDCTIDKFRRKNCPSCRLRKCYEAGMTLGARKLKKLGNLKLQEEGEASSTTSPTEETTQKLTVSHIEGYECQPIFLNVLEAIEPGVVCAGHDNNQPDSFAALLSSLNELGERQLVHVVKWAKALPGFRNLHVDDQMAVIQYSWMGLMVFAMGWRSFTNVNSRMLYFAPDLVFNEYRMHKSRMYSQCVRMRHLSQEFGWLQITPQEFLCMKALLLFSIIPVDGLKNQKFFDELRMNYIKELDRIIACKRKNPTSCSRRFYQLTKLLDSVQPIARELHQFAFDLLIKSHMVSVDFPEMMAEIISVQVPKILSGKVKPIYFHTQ
Test: Effects of compounds on AR expression in LNCaP cells (ELISA, DC50)
Format: cell-based
Design: Measurement of the Effects of Drugs on the Expression of AR in Cells by ELISA Method; endogenous in cells; host or cells: LNCaP
Settings: 24 hours of drug treatment, AR by ELISA
Experimental: Activity Assay Example 1: Effects of Compounds on AR Expression in LNCaP Cells
1. Cell Line and Cell Culture
Human prostate cancer cells LNCaP (Shanghai Chinese Academy of Sciences Cell Bank). LNCaP was cultured in 1640 medium containing 10% fetal bovine serum. The cells grow in clusters, with weak adhesion to the bottom of the culture flask, slow proliferation, with a multiplication time of 72 h. The cells are closely adhered to each other and need to be digested with 0.05% trypsin containing 0.025% EDTA. The cells were passaged every 3 days. The cells were cultured at 37° C. and 5% CO2 in a humidified incubator
2. Cell plating: The supernatant was discarded, and the Lncap cells in the logarithmic growth phase were taken, washed with PBS once, and added with appropriate 0.05% trypsin digestion solution to be fully digested into single cell suspension, and centrifuged, resuspended and counted to make the number of cells about 15,000 per well, then inoculated in a 96-well plate, placed at 37° C., 5% CO2 and cultured overnight for 24 h.
3. Preparation and Addition of Compound Solutions
About 2 mg of each compound was weighed and dissolved in DMSO to make the stock solution with a concentration of 10 mmol/L. Dilution process (final concentration dilution: 2, 0.667, 0.222, 0.074, 0.0245, 0.008, 0.003, 0.001, 0.0003, 0.0001 μmol/L): 10 centrifuge tubes with a volume of 1.5 mL were taken and numbered 1, 2, 3, 4, 5, 6, 7, 8, 9, and 10, 80 μL DMSO was added to tube No. 1, and 60 μL DMSO was added to tubes No. 2 to No. 10, 20 μL of the stock solution was pipetted to tube No. 1 and mixed well; 30 μL was pipetted from tube No. 1 into tube No. 2 and mixed well. 30 μL was pipetted from tube No. 2 into tube No. 3 and mixed well, and so forth, to obtain samples No. 4-10, and to obtain working solutions of compounds of different concentrations respectively. 2 μL was pipetted from the above-mentioned tubes No. 1-10 into each corresponding sterile deep-well plates, added with 198 μL of culture medium, and mixed well. 11 ul was added to each well of the 96-well cell plate cultured overnight to obtain the corresponding desired concentrations (2, 0.667, 0.222, 0.074, 0.0245, 0.008, 0.003, 0.001, 0.0003, 0.0001 μmol/L).
4. Measurement of the Effects of Drugs on the Expression of AR in Cells by ELISA Method
After 24 hours of drug treatment, the supernatant was removed, and 200 μL of PBS was added to wash cells, and then the supernatant was removed, and 100 μL of cell lysate was added to lyse cells on ice for 20 min, then the cell lysate was centrifuged at 4000 rpm for 20 min at 4° C. and the supernatant was taken for later use. The measurement steps of the supernatant were according to the ELISA kit instructions:
4.1 The slats required for the test were taken out from the sealed bag that has been equilibrated to room temperature. Please put the unused slats and desiccant back into the aluminum foil bag and compress the self-sealing strip, seal the bag, and store at 4° C.
4.2 Standards and sample diluents were added to blank wells, and different concentrations of standards (10 ul/well) and sample diluents (90 ul/well) were added to the remaining corresponding wells, and the reaction wells were sealed with sealing tape, and refrigerated at 4° C. overnight.
4.3 Primary antibody was diluted with dilution buffer to the corresponding concentration and added to each well in 100 ul/well. The reaction wells were sealed with sealing tape and incubated at 37° C. for 60 min.
4.4 Secondary antibody was diluted with dilution buffer to the corresponding concentration and added to each well in 100 ul/well. The reaction wells were sealed with sealing tape and incubated at 37° C. for 30 min.
4.5 The reaction wells were added with 100 ul/well of substrate (TMB) and incubated at room temperature for 30 min.
4.6 The reaction wells were added with 100 ul/well of stop solution, mixed well and then the OD450 value was measured with a microplate reader. […]

`CC(C)(C)[C@H](NC(=O)COCCOc1ccc(-c2ncc(N3C(=S)N(c4ccc(C#N)c(C(F)(F)F)c4F)C(=O)C3(C)C)cc2F)cc1F)C(=O)N1C[C@H](O)C[C@H]1C(=O)NCc1ccccc1` [Compound A130] was tested, and the DC50 was 131 nM.

With `Cc1ncsc1-c1ccc(CNC(=O)[C@@H]2C[C@@H](O)CN2C(=O)[C@@H](NC(=O)CCCn2cc(COc3ccc(-c4ncc(N5C(=S)N(c6ccc(C#N)c(C(F)(F)F)c6F)C(=O)C5(C)C)cc4F)cc3F)nn2)C(C)(C)C)cc1` [Compound A96] the DC50 was 54.9 nM.

Work on `Cc1ncoc1-c1c[nH]c([C@@H]2C[C@@H](O)CN2C(=O)[C@@H](NC(=O)COCCCCOc2ccc(-c3ncc(N4C(=S)N(c5ccc(C#N)c(C(F)(F)F)c5F)C(=O)C4(C)C)cc3F)c(C(F)(F)F)c2)C(C)(C)C)n1` [Compound A224] yielded a DC50 of 75.7 nM.

`Cc1ncsc1-c1ccc(CNC(=O)[C@@H]2C[C@@H](O)CN2C(=O)[C@@H](NC(=O)COCCOCCCCOc2ccc(N3C(=S)N(c4ccc(C#N)c(C(F)(F)F)c4F)C(=O)C3(C)C)cn2)C(C)(C)C)cc1` [Compound A254] was tested, and the DC50 was 52.5 nM.

`CC1(C)C(=O)N(c2ccc(C#N)c(C(F)(F)F)c2F)C(=S)N1c1ccc(-c2ccc(C(=O)NCCNC(=O)COc3cccc4c3C(=O)N(C3CCC(=O)NC3=O)C4=O)cc2)nc1` (centres unmarked) [Compound A34] was tested, and the DC50 was 835 nM.

With `CC(C)(C)[C@H](NC(=O)COCCCCCOc1ccc(-c2ncc(N3C(=S)N(c4ccc(C#N)c(C(F)(F)F)c4F)C(=O)C3(C)C)cc2F)cc1F)C(=O)N1C[C@H](O)C[C@H]1C(=O)NCc1ccccc1` [Compound A118] the DC50 was > 2000 nM.

In the case of `COc1c(C#N)ccc(N2C(=O)C(C)(C)N(c3cnc(-c4ccc(OC5CCN(C(=O)COc6ccc7c(c6)C(=O)N(C6CCC(=O)NC6=O)C7=O)CC5)cc4F)c(F)c3)C2=S)c1F` (centres unmarked) [Compound A194], the DC50 is reported as 246 nM.

`Cc1ncsc1-c1ccc(CNC(=O)[C@@H]2C[C@@H](O)CN2C(=O)[C@@H](NC(=O)COc2ncc(N3C(=S)N(c4ccc(C#N)c(C(F)(F)F)c4F)C(=O)C3(C)C)cc2F)C(C)(C)C)cc1` [Compound A264] showed a DC50 of 870 nM.

`Cc1ncsc1-c1ccc(CNC(=O)[C@@H]2C[C@@H](O)CN2C(=O)[C@@H](NC(=O)COCCCCNc2ccc(-c3ccc(N4C(=S)N(c5ccc(C#N)c(C(F)(F)F)c5F)C(=O)C4(C)C)cn3)cc2)C(C)(C)C)cc1` [Compound A68] was tested, and the DC50 was > 2000 nM.

With `Cc1ncsc1-c1ccc(CNC(=O)[C@@H]2C[C@@H](O)CN2C(=O)[C@@H](NC(=O)CCN2CCC(Oc3ccc(-c4ccc(N5C(=S)N(c6ccc(C#N)c(C(F)(F)F)c6F)C(=O)C5(C)C)cn4)cc3)CC2)C(C)(C)C)cc1` [Compound A65] the DC50 was 32.4 nM.

`Cc1ncsc1-c1ccc(CNC(=O)[C@@H]2C[C@@H](O)CN2C(=O)[C@@H](NC(=O)COCC(F)C(F)COc2ccc(-c3ncc(N4C(=S)N(c5ccc(C#N)c(C(F)(F)F)c5F)C(=O)C4(C)C)cc3F)cc2F)C(C)(C)C)cc1` (some centres unmarked) [Compound A150] gave a DC50 of 90.6 nM.

`Cc1ncsc1-c1ccc(CNC(=O)[C@@H]2C[C@@H](O)CN2C(=O)[C@@H]2CCCN2C(=O)COCCCCOc2ccc(-c3ncc(N4C(=S)N(c5ccc(C#N)c(C(F)(F)F)c5F)C(=O)C4(C)C)cc3F)cc2F)cc1` [Compound A142] was tested, and the DC50 was > 2000 nM.

In the case of `Cc1ncsc1-c1ccc([C@H](C)NC(=O)[C@@H]2C[C@@H](O)CN2C(=O)[C@@H](NC(=O)COCCCCOc2ccc(-c3ccc(N4C(=S)N(c5ccc(C#N)c(C(F)(F)F)c5F)C(=O)C4(C)C)cn3)cc2C(F)(F)F)C(C)(C)C)cc1` [Compound A113], the DC50 is reported as 193 nM.

In the case of `CC1(C)C(=O)N(c2ccc(C#N)c(C(F)(F)F)c2F)C(=S)N1c1ccc(CCCC(=O)NCCNC(=O)COc2cccc3c2C(=O)N(C2CCC(=O)NC2=O)C3=O)nc1` (centres unmarked) [Compound A6], the DC50 is reported as > 2000 nM.

`Cc1cc(C(C(=O)N2C[C@H](O)C[C@H]2C(=O)N[C@@H](CC(=O)NCCN2CCC(Oc3ccc(-c4ncc(N5C(=S)N(c6ccc(C#N)c(C(F)(F)F)c6F)C(=O)C5(C)C)cc4F)cc3F)CC2)c2ccc(-c3scnc3C)cc2)C(C)C)on1` (some centres unmarked) [Compound A186] gave a DC50 of 87 nM.

Work on `Cc1ncsc1-c1ccc(CNC(=O)[C@@H]2C[C@@H](O)CN2C(=O)[C@@H](NC(=O)COCCCOCCCCOc2ccc(N3C(=S)N(c4ccc(C#N)c(C(F)(F)F)c4F)C(=O)C3(C)C)cn2)C(C)(C)C)cc1` [Compound A248] yielded a DC50 of 48.8 nM.

For `CC1(C)C(=O)N(c2ccc(C#N)c(C(F)(F)F)c2F)C(=S)N1c1cnc(-c2ccc(OCCNC(=O)COc3cccc4c3C(=O)N(C3CCC(=O)NC3=O)C4=O)c(F)c2)c(F)c1` (centres unmarked) [Compound A39], the DC50 was 19.4 nM.

`Cc1ncsc1-c1ccc(CNC(=O)[C@@H]2C[C@@H](O)CN2C(=O)[C@@H](NC(=O)COCCC(F)(F)COc2ccc(-c3ncc(N4C(=S)N(c5ccc(C#N)c(C(F)(F)F)c5F)C(=O)C4(C)C)cc3F)cc2F)C(C)(C)C)cc1` [Compound A163] showed a DC50 of 171 nM.

For `CC(C)(C)[C@H](NC(=O)COCCCCOc1c(F)cc(-c2ncc(N3C(=S)N(c4ccc(C#N)c(C(F)(F)F)c4F)C(=O)C3(C)C)cc2C(F)(F)F)cc1F)C(=O)N1C[C@H](O)C[C@H]1C(=O)NCc1ccccc1` [Compound A114], the DC50 was 79.3 nM.

Work on `Cc1ncsc1-c1ccc(CNC(=O)[C@@H]2C[C@@H](O)CN2C(=O)[C@@H](OC(=O)COCCCCOc2ccc(-c3ncc(N4C(=S)N(c5ccc(C#N)c(C(F)(F)F)c5F)C(=O)C4(C)C)cc3F)cc2F)C(C)(C)C)cc1` [Compound A107] yielded a DC50 of 107 nM.

In the case of `Cc1ncsc1-c1ccc(CNC(=O)[C@@H]2C[C@@H](O)CN2C(=O)[C@@H](NC(=O)COCCOc2ncc(N3C(=S)N(c4ccc(C#N)c(C(F)(F)F)c4F)C(=O)C3(C)C)cc2C(F)(F)F)C(C)(C)C)cc1` [Compound A269], the DC50 is reported as 766 nM.

Work on `CC(C)(C)[C@H](NC(=O)COCCCCOc1ccc(-c2ncc(N3C(=S)N(c4ccc(C#N)c(C(F)(F)F)c4F)C(=O)C3(C)C)cc2F)c(C(F)(F)F)c1)C(=O)N1C[C@H](O)C[C@H]1C(=O)NCc1ccc(C(N)=O)cc1` [Compound A131] yielded a DC50 of 34.8 nM.

In the case of `Cc1ncsc1-c1ccc(CNC(=O)[C@@H]2C[C@@H](O)CN2C(=O)[C@@H](NC(=O)CCCCCNC(=O)c2ccc(-c3ccc(N4C(=S)N(c5ccc(C#N)c(C(F)(F)F)c5F)C(=O)C4(C)C)cn3)cc2)C(C)(C)C)cc1` [Compound A53], the DC50 is reported as 149 nM.
